{
  "source": "patent US12622903B2",
  "about": "“Drug products for intranasal administration and uses thereof” (Summit Biosciences Inc., priority 2020, dated 2026)",
  "origin": "cited, not measured here",
  "system": "opioid overdose",
  "data": [
    {"compound": "C=CCN1CC[C@]23c4c5ccc(O)c4O[C@H]2C(=O)CC[C@@]3(O)[C@H]1C5", "note": "[naloxone, 17-allyl-4,5a-epoxy-3,14-dihydroxymorphinan-6-one]", "values": [
      {"measurement": "participants reporting serious adverse effects", "setting": "DOPE Project participants", "result": "< 1", "unit": "%"},
      {"measurement": "overdose events reported reversed", "setting": "of 399 overdose events where naloxone was used, participant reports", "result": 89, "unit": "%"}
    ]}
  ]
}
